Measurements reported in patent US11981677B2, “Further substituted triazolo quinoxaline derivatives” (Grünenthal GmbH, priority 2018, dated 2024).

Target: T1, Glucocorticoid Receptor (Homo sapiens, UniProt P04150)
T1 construct: expressed in transfected cells
T1 sequence (P04150 524-758 limits assumed): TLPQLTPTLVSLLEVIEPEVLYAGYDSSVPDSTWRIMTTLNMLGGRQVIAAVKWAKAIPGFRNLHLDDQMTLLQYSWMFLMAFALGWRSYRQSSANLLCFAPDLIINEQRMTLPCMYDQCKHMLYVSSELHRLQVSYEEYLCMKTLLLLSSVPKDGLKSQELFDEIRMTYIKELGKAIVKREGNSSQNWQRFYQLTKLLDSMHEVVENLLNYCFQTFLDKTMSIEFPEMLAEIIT
Assay: Agonistic mode of action on the glucocorticoid receptor (CHO-Gal4/GR luciferase reporter cell line)
Format: cell-based
Details: CHO-Gal4/GR luciferase reporter cells; observed in the agonistic assay or the antagonistic assay (mode not given); read-out: IC50 or EC50 range
Method in brief: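 CHO cells stably expressing GAL4 DBD–GR ligand-binding domain fusion with GAL4-UAS firefly luciferase reporter, seeded 24 h, then treated in Opti-MEM with 8 half-log concentrations from 10 μM to 0.003 μM (0.5% DMSO), quadruplicate. Luminescence read on FLIPR after lysis with Triton/luciferin; EC50 calculated.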

IC50 or EC50 (antagonist or agonist mode, not stated per compound)	Structure (SMILES)
100 to 1000 nM	Cc1nnc2n1-c1c(c(F)cc(-c3cc(F)cc4c3cnn4S(C)(=O)=O)c1C1CC1)NC2(C)C [Example 467, 9-Cyclopropyl-6-fluoro-8-(6-fluoro-1-methylsulfonyl-1H-indazol-4-yl)-1,4,4-trimethyl-5H-[1,2,4]triazolo[4,3-a]quinoxaline]
< 100 nM	Cc1c(-c2cccc3[nH]ccc23)cc(F)c2c1-n1c(C)nnc1C(C)(C)N2 [Example 468, 6-Fluoro-8-(1H-indol-4-yl)-1,4,4,9-tetramethyl-5H-[1,2,4]triazolo[4,3-a]quinoxaline]
100 to 1000 nM	COc1c(-c2cccc3[nH]ccc23)cc(F)c2c1-n1c(C)nnc1C(C)(C)N2 [Example 469, 6-Fluoro-8-(1H-indol-4-yl)-9-methoxy-1,4,4-trimethyl-5H-[1,2,4]triazolo[4,3-a]quinoxaline]
100 to 1000 nM	COc1c(-c2cc(F)cc3[nH]ccc23)cc(F)c2c1-n1c(C)nnc1C(C)(C)N2 [Example 470, 6-Fluoro-8-(6-fluoro-1H-indol-4-yl)-9-methoxy-1,4,4-trimethyl-5H-[1,2,4]triazolo[4,3-a]quinoxaline]
< 100 nM	Cc1nnc2n1-c1c(c(F)cc(-c3cc(F)cc4c3ccn4S(C)(=O)=O)c1C1CC1)NC2(C)C [Example 471, 9-Cyclopropyl-6-fluoro-8-(6-fluoro-1-methylsulfonyl-1H-indol-4-yl)-1,4,4-trimethyl-5H-[1,2,4]triazolo[4,3-a]quinoxaline]
100 to 1000 nM	Cc1c[nH]c2c(-c3cc(F)c4c(c3C3CC3)-n3c(C)nnc3C(C)(C)N4)cccc12 [Example 472, 9-Cyclopropyl-6-fluoro-1,4,4-trimethyl-8-(3-methyl-1H-indol-7-yl)-5H-[1,2,4]triazolo[4,3-a]quinoxaline]
100 to 1000 nM	COc1c(-c2cc(C(F)(F)F)cc3[nH]ccc23)cc(F)c2c1-n1c(C)nnc1C(C)(C)N2 [Example 473, 6-Fluoro-9-methoxy-1,4,4-trimethyl-8-[6-(trifluoromethyl)-1H-indol-4-yl]-5H-[1,2,4]triazolo[4,3-a]quinoxaline]
100 to 1000 nM	Cc1nnc2n1-c1c(c(F)cc(-c3cccc4c3ccn4S(C)(=O)=O)c1C1CC1)NC2(C)C [Example 474, 9-Cyclopropyl-6-fluoro-1,4,4-trimethyl-8-(1-methylsulfonyl-1H-indol-4-yl)-5H-[1,2,4]triazolo[4,3-a]quinoxaline]
100 to 1000 nM	Cc1cc(-c2cc(F)c3c(c2C)-n2c(C)nnc2C(C)(C)N3)c2ccn(S(C)(=O)=O)c2c1 [Example 475, 6-Fluoro-1,4,4,9-tetramethyl-8-(6-methyl-1-methylsulfonyl-1H-indol-4-yl)-5H-[1,2,4]triazolo[4,3-a]quinoxaline]
100 to 1000 nM	COc1c(-c2cc(C)cc3c2ccn3S(C)(=O)=O)cc(F)c2c1-n1c(C)nnc1C(C)(C)N2 [Example 476, 6-Fluoro-9-methoxy-1,4,4-trimethyl-8-(6-methyl-1-methylsulfonyl-1H-indol-4-yl)-5H-[1,2,4]triazolo[4,3-a]quinoxaline]
100 to 1000 nM	Cc1c(-c2cc(C#N)cc3[nH]ccc23)cc(F)c2c1-n1c(C)nnc1C(C)(C)N2 [Example 477, 4-(6-Fluoro-1,4,4,9-tetramethyl-5H-[1,2,4]triazolo[4,3-a]quinoxalin-8-yl)-1H-indole-6-carbonitrile]
< 100 nM	COc1c(-c2cc(F)cc3c(C4CC4)c[nH]c23)cc(F)c2c1-n1c(C)nnc1C(C)(C)N2 [Example 478, 8-(3-Cyclopropyl-5-fluoro-1H-indol-7-yl)-6-fluoro-9-methoxy-1,4,4-trimethyl-5H-[1,2,4]triazolo[4,3-a]quinoxaline]
100 to 1000 nM	CCS(=O)(=O)n1ccc2c(-c3cc(F)c4c(c3NC)-n3c(C)nnc3C(C)(C)N4)cc(F)cc21 [Example 479, [8-[1-(Ethylsulfonyl)-6-fluoro-1H-indol-4-yl]-6-fluoro-1,4,4-trimethyl-5H-[1,2,4]triazolo[4,3-a]quinoxalin-9-yl]-methyl-amine]
100 to 1000 nM	CNc1c(-c2cc(F)cc3c2ccn3CCO)cc(F)c2c1-n1c(C)nnc1C(C)(C)N2 [Example 480, 2-[6-Fluoro-4-(6-fluoro-1,4,4-trimethyl-9-methylamino-5H-[1,2,4]triazolo[4,3-a]quinoxalin-8-yl)-1H-indol-1-yl]-EtOH]
100 to 1000 nM	CNc1c(-c2cccc3c2ccn3C2CC2)cc(F)c2c1-n1c(C)nnc1C(C)(C)N2 [Example 481, 8-(1-cyclopropyl-1H-indol-4-yl)-6-fluoro-N,1,4,4-tetramethyl-4,5-dihydro-[1,2,4]triazolo[4,3-a]quinoxalin-9-amine]
100 to 1000 nM	COc1c(-c2cccc3c2ccn3S(C)(=O)=O)cc(Cl)c2c1-n1c(C)nnc1C(C)(C)N2 [Example 482, 6-Chloro-9-methoxy-1,4,4-trimethyl-8-(1-methylsulfonyl-1H-indol-4-yl)-5H-[1,2,4]triazolo[4,3-a]quinoxaline]
< 100 nM	COc1c(-c2cc(F)cc3c2ccn3S(C)(=O)=O)cc(Cl)c2c1-n1c(C)nnc1C(C)(C)N2 [Example 483, 6-chloro-8-(6-fluoro-1-(methylsulfonyl)-1H-indol-4-yl)-9-methoxy-1,4,4-trimethyl-4,5-dihydro-[1,2,4]triazolo[4,3-a]quinoxaline]
< 100 nM	Cc1c(-c2cccc3c2ccn3C)cc(F)c2c1-n1c(C)nnc1C(C)(C)N2 [Example 484, 6-Fluoro-1,4,4,9-tetramethyl-8-(1-methyl-1H-indol-4-yl)-5H-[1,2,4]triazolo[4,3-a]quinoxaline]
100 to 1000 nM	COc1c(-c2cccc3c2ccn3C)cc(F)c2c1-n1c(C)nnc1C(C)(C)N2 [Example 485, 6-Fluoro-9-methoxy-1,4,4-trimethyl-8-(1-methyl-1H-indol-4-yl)-5H-[1,2,4]triazolo[4,3-a]quinoxaline]
100 to 1000 nM	CNc1c(-c2cc(F)cc3c2ccn3S(C)(=O)=O)cc(F)c2c1-n1c(C)nnc1C(C)(C)N2 [Example 486, [6-Fluoro-8-(6-fluoro-1-methylsulfonyl-1H-indol-4-yl)-1,4,4-trimethyl-5H-[1,2,4]triazolo[4,3-a]quinoxalin-9-yl]-methyl-amine]
< 100 nM	CNc1c(-c2cc(F)cc3c(C)c[nH]c23)cc(F)c2c1-n1c(C)nnc1C(C)(C)N2 [Example 487, [6-Fluoro-8-(5-fluoro-3-methyl-1H-indol-7-yl)-1,4,4-trimethyl-5H-[1,2,4]triazolo[4,3-a]quinoxalin-9-yl]-methyl-amine]
< 100 nM	COc1c(-c2cc(F)cc3[nH]ccc23)cc(Cl)c2c1-n1c(C)nnc1C(C)(C)N2 [Example 488, 6-Chloro-8-(6-fluoro-1H-indol-4-yl)-9-methoxy-1,4,4-trimethyl-5H-[1,2,4]triazolo[4,3-a]quinoxaline]
100 to 1000 nM	COc1c(-c2ccc(F)c3[nH]ncc23)cc(F)c2c1-n1c(C)nnc1C(C)(C)N2 [Example 489, 6-Fluoro-8-(7-fluoro-1H-indazol-4-yl)-9-methoxy-1,4,4-trimethyl-5H-[1,2,4]triazolo[4,3-a]quinoxaline]
100 to 1000 nM	Cc1c(-c2ccc(F)c3[nH]ccc23)cc(F)c2c1-n1c(C)nnc1C(C)(C)N2 [Example 490, 6-fluoro-8-(7-fluoro-1H-indol-4-yl)-1,4,4,9-tetramethyl-4,5-dihydro-[1,2,4]triazolo[4,3-a]quinoxaline]
< 100 nM	Cc1c(-c2cccc3c2ccn3S(=O)(=O)CC2CC2)cc(F)c2c1-n1c(C)nnc1C(C)(C)N2 [Example 491, 8-[1-(Cyclopropyl-methylsulfonyl)-1H-indol-4-yl]-6-fluoro-1,4,4,9-tetramethyl-5H-[1,2,4]triazolo[4,3-a]quinoxaline]
100 to 1000 nM	COc1c(-c2cc(C(F)(F)F)cc3c2ccn3S(C)(=O)=O)cc(F)c2c1-n1c(C)nnc1C(C)(C)N2 [Example 492, 6-Fluoro-9-methoxy-1,4,4-trimethyl-8-[1-methylsulfonyl-6-(trifluoromethyl)-1H-indol-4-yl]-5H-[1,2,4]triazolo[4,3-a]quinoxaline]
100 to 1000 nM	COc1c(-c2cc(F)cc3c2cnn3S(C)(=O)=O)cc(Cl)c2c1-n1c(C)nnc1C(C)(C)N2 [Example 493, 6-Chloro-8-(6-fluoro-1-methylsulfonyl-1H-indazol-4-yl)-9-methoxy-1,4,4-trimethyl-5H-[1,2,4]triazolo[4,3-a]quinoxaline]
100 to 1000 nM	COc1c(-c2ccc(F)c3[nH]ccc23)cc(F)c2c1-n1c(C)nnc1C(C)(C)N2 [Example 494, 6-Fluoro-8-(7-fluoro-1H-indol-4-yl)-9-methoxy-1,4,4-trimethyl-5H-[1,2,4]triazolo[4,3-a]quinoxaline]
100 to 1000 nM	COc1c(-c2cc(F)cc3[nH]ncc23)cc(F)c2c1-n1c(C)nnc1C(C)(C)N2 [Example 495, 6-Fluoro-8-(6-fluoro-1H-indazol-4-yl)-9-methoxy-1,4,4-trimethyl-5H-[1,2,4]triazolo[4,3-a]quinoxaline]
